According to patent publication US20060099284A1, “Composition containing an extract of fructus psoraleae for inhibiting anxiety and depression, improving memory and treating dementia” (priority 2004, published 2006):

Test system: male ICR mouse
Test: Passive avoidance test: dementia treatment test (scopolamine)
Format: in vivo
Settings: scopolamine 1 mg/kg intraperitoneally after training; test after 24 hours; FIG. 5B
Experimental: A passive avoidance test was carried out using a Gemini avoidance system (San Diego Instruments, USA) one hour after extracts (fraction T, fraction C, fraction CM, or fraction M) of Fructus Psoraleae were orally administered to a male ICR mouse (20 g) in a dose of 10 mg/kg. The test was modified on the basis of a method by Kumar, et al. and carried out as follows (Kumar, V., Singh, P. N., Muruganandan, A. V., Bhattacharya, Effect of Indian Hypericum perforatum Linn on animal models of cognitive dysfunction; J Ethnopharmacology 72, p 119-128, 2000).
On the first day of a training test, a mouse was put into the bright box to be acclimated for 300 seconds, prior to moving the mouse into a dark box by automatically opening a door. If the mouse moved into a dark box, it was electrically stimulated one second at 0.3 mA. As soon as a training session was finished, scopolamine was intraperitoneally administered in a dose of 1 mg/kg. At the test after 24 hours, the mouse was acclimated in the bright box for 300 seconds, prior to moving the mouse into the dark box by opening a door. The time to move into the dark box was measured at this time. […]

CN1[C@@H]2C[C@@H](OC(=O)[C@H](CO)c3ccccc3)C[C@H]1[C@@H]1O[C@@H]12 [scopolamine]
memory failure compared with a control group: 66.6%
